Experimental data from PubChem BioAssay AID330 (DTP/NCI, 2004).
Where “and” joins values, the source holds several entries; their conditions need not be identical. Equal values may be shown once. Inconclusive results and toxic doses are left out. How the source made its calls: active means survival T/C of 150% or more; inactive means T/C below 125% in these data.

Tested on: P388 leukemia ip, CD2F1 mice, survival T/C
Experiment: NCI In Vivo Anticancer Drug Screen. Data for tumor model P388 Leukemia (intraperitoneal) in CD2F1 (CDF1) mice
Conditions: endpoint: median survival time, higher = longer survival
Procedure, shortened: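 Mice carrying the transplanted tumor received test compound or vehicle. Survival was recorded in each group, and the value is the treated-group measurement divided by that of the vehicle-treated control group.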

[1] = dose: 50.0 mg/kg/injection, schedule: Q01DX009 (ip), vehicle: saline with Tween-80
[2] = dose: 100.0 mg/kg/injection, schedule: Q01DX009 (ip), vehicle: saline with Tween-80
[3] = dose: 200.0 mg/kg/injection, schedule: Q01DX009 (ip), vehicle: saline with Tween-80
[4] = dose: 50.0 mg/kg/injection, schedule: Q01DX005 (ip), vehicle: Klucel (hydroxypropylcellulose) (HPC)
[5] = dose: 200.0 mg/kg/injection, schedule: Q01DX005 (ip), vehicle: Klucel (hydroxypropylcellulose) (HPC)

Measured: T/C

COc1cccc2c1C(=O)c1c(O)c3c(c(O)c1C2=O)C[C@@](O)(/C(C)=N/NC(=O)c1ccc(N(C)C)cc1)C[C@@H]3OC1CC(N)C(O)C(C)O1 (stereo partly specified)
inactive: dose: 0.12 mg/kg/injection, schedule: Q01DX009 (ip), vehicle: water 94 % of control | dose: 0.25 mg/kg/injection, schedule: Q01DX009 (ip), vehicle: water 111 % of control | dose: 8.0 mg/kg/injection, schedule: Q01DX009 (ip), vehicle: water 86 % of control | dose: 16.0 mg/kg/injection, schedule: Q01DX009 (ip), vehicle: water 89 % of control | dose: 40.0 mg/kg/injection, schedule: Q01DX001 (ip), vehicle: water 115 % of control
active: dose: 0.5 mg/kg/injection, schedule: Q01DX009 (ip), vehicle: water 150 % of control and 154 % of control | dose: 1.0 mg/kg/injection, schedule: Q01DX009 (ip), vehicle: water 154 % of control and 164 % of control | dose: 2.0 mg/kg/injection, schedule: Q01DX009 (ip), vehicle: water 164 % of control and 181 % of control | dose: 4.0 mg/kg/injection, schedule: Q01DX009 (ip), vehicle: water 157 % of control and 172 % of control | dose: 10.0 mg/kg/injection, schedule: Q01DX001 (ip), vehicle: water 159 % of control | dose: 20.0 mg/kg/injection, schedule: Q01DX001 (ip), vehicle: water 166 % of control

Nc1nc2nc3c(nc2c(=O)[nH]1)C(=O)N(c1ccc(C(=O)O)cc1)C3
inactive: dose: 6.25 mg/kg/injection, schedule: Q04DX003 (ip), vehicle: saline with Tween-80 111 % of control | dose: 12.5 mg/kg/injection, schedule: Q04DX003 (ip), vehicle: saline with Tween-80 98 % of control | dose: 25.0 mg/kg/injection, schedule: Q04DX003 (ip), vehicle: saline with Tween-80 100 % of control and 103 % of control

CN(C)CCCn1c(=O)nc2n(-c3ccccc3)c3ccccc3nc-2c1=O
inactive: dose: 6.25 mg/kg/injection, schedule: Q01DX009 (ip), vehicle: Klucel (hydroxypropylcellulose) (HPC) 100 % of control and 106 % of control | dose: 12.5 mg/kg/injection, schedule: Q01DX009 (ip), vehicle: Klucel (hydroxypropylcellulose) (HPC) 105 % of control | dose: 25.0 mg/kg/injection, schedule: Q01DX009 (ip), vehicle: Klucel (hydroxypropylcellulose) (HPC) 109 % of control | dose: 50.0 mg/kg/injection, schedule: Q01DX009 (ip), vehicle: Klucel (hydroxypropylcellulose) (HPC) 122 % of control

CC1CC2OC(=O)C(CN3CC3)C2CC2(C)C(O)CC(O)C12 (stereo unspecified)
inactive: dose: 25.0 mg/kg/injection, schedule: Q04DX002 (ip), vehicle: saline with Tween-80 108 % of control and 93 % of control | dose: 50.0 mg/kg/injection, schedule: Q04DX002 (ip), vehicle: saline with Tween-80 101 % of control and 113 % of control | dose: 100.0 mg/kg/injection, schedule: Q04DX002 (ip), vehicle: saline with Tween-80 102 % of control and 113 % of control

NC(=S)c1ccc(C2Nc3cccnc3N2)cc1 (stereo unspecified)
inactive: [1] 93 % of control | [2] 95 % of control | [3] 90 % of control

CCC1=Cc2cc([N+](=O)[O-])cc(OC)c2OC12SCCN2C (stereo unspecified)
inactive: dose: 100.0 mg/kg/injection, schedule: Q04DX003 (ip), vehicle: saline with Tween-80 100 % of control | dose: 200.0 mg/kg/injection, schedule: Q04DX003 (ip), vehicle: saline with Tween-80 103 % of control | dose: 400.0 mg/kg/injection, schedule: Q04DX003 (ip), vehicle: saline with Tween-80 103 % of control

O=c1[nH]c2ccccc2c(N=Cc2ccccc2)c1-c1ccccc1
inactive: dose: 60.0 mg/kg/injection, schedule: Q01DX005 (ip), vehicle: Klucel (hydroxypropylcellulose) (HPC) 96 % of control | dose: 120.0 mg/kg/injection, schedule: Q01DX005 (ip), vehicle: Klucel (hydroxypropylcellulose) (HPC) 93 % of control | dose: 240.0 mg/kg/injection, schedule: Q01DX005 (ip), vehicle: Klucel (hydroxypropylcellulose) (HPC) 98 % of control

COc1cc(/C=N/N2CN(C(C)C(=O)O)B(Nc3ncccn3)N=C2N)cc(OC)c1 (stereo unspecified)
inactive: dose: 60.0 mg/kg/injection, schedule: Q01DX005 (ip), vehicle: saline 103 % of control | dose: 120.0 mg/kg/injection, schedule: Q01DX005 (ip), vehicle: saline 111 % of control | dose: 240.0 mg/kg/injection, schedule: Q01DX005 (ip), vehicle: saline 112 % of control

O=C(O)C(Cl)(c1ccccc1)C(Cl)c1ccccc1 (stereo unspecified)
inactive: [1] 104 % of control | [2] 95 % of control | [3] 100 % of control

O=C(O)CC1C(=O)OC2C3COC(=O)c4cc(O)c(O)c(O)c4-c4c(cc(O)c(O)c4O)C(=O)OC2C(OC(=O)c2cc(O)c(O)c4c2C1C(O)C(=O)O4)C(OC(=O)c1cc(O)c(O)c(O)c1)O3 (stereo unspecified)
inactive: dose: 0.78 mg/kg/injection, schedule: Q01DX009 (ip), vehicle: saline 99 % of control | dose: 1.56 mg/kg/injection, schedule: Q01DX009 (ip), vehicle: saline 102 % of control | dose: 3.12 mg/kg/injection, schedule: Q01DX009 (ip), vehicle: saline 98 % of control | dose: 6.25 mg/kg/injection, schedule: Q01DX009 (ip), vehicle: saline 100 % of control and 121 % of control | dose: 12.5 mg/kg/injection, schedule: Q01DX009 (ip), vehicle: saline 111 % of control and 93 % of control | dose: 25.0 mg/kg/injection, schedule: Q01DX009 (ip), vehicle: saline 107 % of control and 97 % of control | dose: 50.0 mg/kg/injection, schedule: Q01DX009 (ip), vehicle: saline 116 % of control and 97 % of control

Fc1ccc(C(Nc2nncs2)Nc2nncs2)cc1
active: [5] 152 % of control
inactive: [4] 111 % of control

COC(=O)c1c(OC)c(Cl)c2cc3c(c(O)c2c1C)C(=O)[C@@]1(O)C(=O)C=C(OC)[C@H](O)[C@@]1(O)C3=O
inactive: dose: 11.0 mg/kg/injection, schedule: Q01DX005 (ip), vehicle: saline with Tween-80 103 % of control | dose: 22.0 mg/kg/injection, schedule: Q01DX005 (ip), vehicle: saline with Tween-80 105 % of control | dose: 44.0 mg/kg/injection, schedule: Q01DX005 (ip), vehicle: saline with Tween-80 89 % of control | dose: 88.0 mg/kg/injection, schedule: Q01DX005 (ip), vehicle: saline with Tween-80 94 % of control | dose: 176.0 mg/kg/injection, schedule: Q01DX005 (ip), vehicle: saline with Tween-80 99 % of control

NC(=S)N/N=C/c1ccccc1
inactive: dose: 12.5 mg/kg/injection, schedule: Q04DX003 (ip), vehicle: Klucel (hydroxypropylcellulose) (HPC) 116 % of control | dose: 25.0 mg/kg/injection, schedule: Q04DX003 (ip), vehicle: Klucel (hydroxypropylcellulose) (HPC) 109 % of control

Cc1ccc(OP(=O)(Oc2ccc(C)cc2)Oc2ccc(C)cc2)cc1.Cc1ccc(OP(=O)(Oc2ccc(C)cc2)Oc2ccc(C)cc2)cc1.Cc1ccc(OP(=O)(Oc2ccc(C)cc2)Oc2ccc(C)cc2)cc1.Cc1ccc(OP(=O)(Oc2ccc(C)cc2)Oc2ccc(C)cc2)cc1.[O-][Cl+3]([O-])([O-])O.[Zn+2]
inactive: dose: 100.0 mg/kg/injection, schedule: Q04DX003 (ip), vehicle: Klucel (hydroxypropylcellulose) (HPC) 98 % of control | dose: 200.0 mg/kg/injection, schedule: Q04DX003 (ip), vehicle: Klucel (hydroxypropylcellulose) (HPC) 102 % of control

O=C1c2ccccc2C(=O)N1c1ccc(C(F)(F)F)cc1[N+](=O)[O-]
inactive: dose: 100.0 mg/kg/injection, schedule: Q04DX003 (ip), vehicle: saline 91 % of control | dose: 200.0 mg/kg/injection, schedule: Q04DX003 (ip), vehicle: saline 100 % of control | dose: 400.0 mg/kg/injection, schedule: Q04DX003 (ip), vehicle: saline 93 % of control

COC(=O)C12OCC34C(CC5C(C)=C(O)C(=O)CC5(C)C3C(O)C1O)OC(=O)C(OC(=O)C=C(C)C)C24 (stereo unspecified)
inactive: dose: 0.13 mg/kg/injection, schedule: Q01DX009 (ip), vehicle: saline 100 % of control | dose: 0.25 mg/kg/injection, schedule: Q01DX009 (ip), vehicle: saline 100 % of control | dose: 0.5 mg/kg/injection, schedule: Q01DX009 (ip), vehicle: saline 96 % of control | dose: 2.0 mg/kg/injection, schedule: Q01DX009 (ip), vehicle: saline 98 % of control | dose: 4.0 mg/kg/injection, schedule: Q01DX009 (ip), vehicle: saline 100 % of control | dose: 125.0 micrograms/kg/injection, schedule: Q01DX009 (ip), vehicle: saline + alcohol 104 % of control | dose: 250.0 micrograms/kg/injection, schedule: Q01DX009 (ip), vehicle: saline + alcohol 102 % of control | dose: 500.0 micrograms/kg/injection, schedule: Q01DX009 (ip), vehicle: saline + alcohol 104 % of control | dose: 1000.0 micrograms/kg/injection, schedule: Q01DX009 (ip), vehicle: saline + alcohol 95 % of control | dose: 2000.0 micrograms/kg/injection, schedule: Q01DX009 (ip), vehicle: saline + alcohol 93 % of control | dose: 4000.0 micrograms/kg/injection, schedule: Q01DX009 (ip), vehicle: saline + alcohol 102 % of control

Cc1nc2ccccc2c(=O)n1-c1ccc(-c2nnc(Sc3nnc(-c4ccc(-n5c(C)nc6ccccc6c5=O)cc4)n3-c3ccccc3)n2-c2ccccc2)cc1
inactive: [4] 102 % of control | dose: 100.0 mg/kg/injection, schedule: Q01DX005 (ip), vehicle: Klucel (hydroxypropylcellulose) (HPC) 101 % of control | [5] 90 % of control
